Assay results reported in publication PMC8976378, “NADH oxidase of Mycoplasma hyopneumoniae functions as a potential mediator of virulence” (BMC Veterinary Research, 2022).

Biological target: rNOX (NADH oxidase, NOX) (Mesomycoplasma hyopneumoniae, UniProt E4QS87)
Assay: NADH oxidation, absorbance at […] nm
Type: biochemical
Conditions: 0.5 mM NADH; 10 uM FAD added; 0.1 M potassium phosphate pH 7.5, 1 mM dithiothreitol; 25 °C; 5 ug/mL enzyme

rNOX (NADH oxidase, NOX), sequence (E4QS87 entry or part of it): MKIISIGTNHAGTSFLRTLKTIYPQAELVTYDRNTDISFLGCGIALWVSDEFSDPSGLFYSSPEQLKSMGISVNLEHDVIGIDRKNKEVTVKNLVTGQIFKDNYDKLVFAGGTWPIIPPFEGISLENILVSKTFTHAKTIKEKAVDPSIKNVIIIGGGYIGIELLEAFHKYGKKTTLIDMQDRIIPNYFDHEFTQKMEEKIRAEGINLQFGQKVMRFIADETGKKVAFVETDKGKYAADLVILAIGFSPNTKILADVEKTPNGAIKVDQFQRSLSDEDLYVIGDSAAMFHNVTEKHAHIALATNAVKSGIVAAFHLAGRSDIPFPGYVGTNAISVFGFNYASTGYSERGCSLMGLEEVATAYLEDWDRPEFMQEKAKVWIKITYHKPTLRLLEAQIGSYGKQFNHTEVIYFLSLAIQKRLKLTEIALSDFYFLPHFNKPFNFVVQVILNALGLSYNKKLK

## NC(=O)C1=CN([C@@H]2O[C@H](COP(=O)(O)OP(=O)(O)OC[C@H]3O[C@@H](n4cnc5c(N)ncnc54)[C@H](O)[C@@H]3O)[C@@H](O)[C@H]2O)C=CC1 [NADH]
  NADH oxidation, absorbance at 340 nm: enzymatic activity of purified rNOX was determined by measuring the oxidation of NADH to NAD^+
